pEC50: −log10 of the molar value. Like-named read-outs stand apart in the source and are kept apart here.
Test system: SH-SY5Y M-currents (KCNQ2, KCNQ3 and KCNQ5)
Assay: SH-SY5Y native cell line FLIPR assay (voltage-sensitive dye DiBAC)
Type: cell-based, mouse neuroblastoma, rat glioma hybrid cell line
Method in brief: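 Response is peak DiBAC fluorescence change, normalised to the maximum from a positive control agent, sampled every 30 s over 25 min. Before compound addition, SH-SY5Y cells differentiated with PGE1 plus isomethylbutylxanthine were dye-loaded for 1 h in EBSS with […] DiBAC.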

[1] = FLIPR assay, SH-SY5Y native cell line, Table 2, read-out: SH-SY5Y EC50
[2] = SH-SY5Y native cell line, FLIPR assay (Table 3), read-out: SH-SY5Y EC50
[3] = FLIPR assay, SH-SY5Y native cell line, Table 1, read-out: SH-SY5Y EC50

Row | pEC50 [1] | Structure (SMILES) | also measured
1 | 5.52 to 6.30 | O=C(CCC(F)(F)F)Nc1nc2ccc(F)cn2c1-c1ccc(OC(F)(F)F)cc1 [Compound 173, 4,4,4-trifluoro-N-(6-fluoro-3-(4-(trifluoromethoxy)phenyl)imidazo[1,2-a]pyridin-2-yl)butanamide] | 
2 | > 6.30 | O=C(CC1CCC1)Nc1nc2ccc(F)cn2c1-c1cccc(OC(F)(F)F)c1 [Compound 266, 2-cyclobutyl-N-(6-fluoro-3-(3-(trifluoromethoxy)phenyl)imidazo[1,2-a]pyridin-2-yl)acetamide] | 
3 | 5.52 to 6.30 | CC(C)C(C)C(=O)Nc1nc2ccc(F)cn2c1-c1ccc(C(F)(F)F)cc1 (stereo not shown) [Compound 184, N-(6-fluoro-3-(4-(trifluoromethyl)phenyl)imidazo[1,2-a]pyridin-2-yl)-2,3-dimethylbutanamide] | 
4 | > 6.30 | CC(C)(C)CC(=O)Nc1nc2ccc(F)cn2c1-c1ccc(C(F)(F)F)c(F)c1 [Compound 199, N-(6-fluoro-3-(3-fluoro-4-(trifluoromethyl)phenyl)imidazo[1,2-a]pyridin-2-yl)-3,3-dimethylbutanamide] | 

Further lines, the compound ahead of its results:

Row | Structure (SMILES) | pEC50 [1] | also measured
5 | O=C(NCc1ccc(F)cc1)Nc1nc2ccc(F)cn2c1-c1ccc(C(F)(F)F)cc1 [Compound 214, 1-(6-fluoro-3-(4-(trifluoromethyl)phenyl)imidazo[1,2-a]pyridin-2-yl)-3-(4-fluorobenzyl)urea] | 5.52 to 6.30 | 
6 | O=C(Cc1cc(F)cc(F)c1)Nc1nc2ccc(F)cn2c1-c1ccc(OC(F)(F)F)cc1 [Compound 242, 2-(3,5-difluorophenyl)-N-(6-fluoro-3-(4-(trifluoromethoxy)phenyl)imidazo[1,2-a]pyridin-2-yl)acetamide] | > 6.30 | 
7 | O=C(CC1CCCC1)Nc1nc2ccc(F)cn2c1-c1ccccc1 [Compound 94, 2-cyclopentyl-N-(6-fluoro-3-phenylimidazo[1,2-a]pyridin-2-yl)acetamide] | > 6.30 | 
8 | O=C(Cc1ccc(C(F)(F)F)cc1)Nc1nc2ccc(F)cn2c1-c1ccc(F)cc1 [Compound 135, N-(6-fluoro-3-(4-fluorophenyl)imidazo[1,2-a]pyridin-2-yl)-2-(4-(trifluoromethyl)phenyl)acetamide] | 5.52 to 6.30 | 
9 | O=C(Cc1ccc(C(F)(F)F)cc1)Nc1nc2ccc(F)cn2c1-c1cccc(Cl)c1 [Compound 299, N-(3-(3-chlorophenyl)-6-fluoroimidazo[1,2-a]pyridin-2-yl)-2-(4-(trifluoromethyl)phenyl)acetamide] | 5.52 to 6.30 | 
10 | CC(C)(C)CC(=O)N(C(=O)CC(C)(C)C)c1nc2ccc(F)cn2c1-c1cccc(C(F)(F)F)n1 [Compound 357, N-(3,3-dimethylbutanoyl)-N-(6-fluoro-3-(6-(trifluoromethyl)pyridin-2-yl)imidazo[1,2-a]pyridin-2-yl)-3,3-dimethylbutanamide] |  | pEC50 [2]: 5.00 to 5.52
11 | CC(CC(=O)Nc1nc2ccc(C(F)(F)F)cn2c1-c1nccs1)C(F)(F)F (stereo not shown) [Compound 83, 4,4,4-trifluoro-3-methyl-N-(3-(thiazol-2-yl)-6-(trifluoromethyl)imidazo[1,2-a]pyridin-2-yl)butanamide] |  | pEC50 [3]: 5.00 to 5.52
12 | Cc1c(NC(=O)CC(F)(F)F)nc2ccc(F)cn12 [Compound 424, 3,3,3-trifluoro-N-(6-fluoro-3-methylimidazo[1,2-a]pyridin-2-yl)propanamide] |  | pEC50 (FLIPR assay, SH-SY5Y native cell line, Table 5, read-out: SH-SY5Y EC50): 5.00 to 5.52; pEC50 (read-out: SH-SY5Y_EC50): 5.00
13 | O=C(Nc1nc2ccc(C(F)(F)F)cn2c1C1CCCCC1)C1CCCC1 [Compound 54, N-(3-cyclohexyl-6-(trifluoromethyl)imidazo[1,2-a]pyridin-2-yl)cyclopentanecarboxamide] |  | pEC50 [3]: > 6.30
14 | CC(C)(C)CC(=O)Nc1nc2ccc(C(F)(F)F)cn2c1-c1cc(C(F)(F)F)ccn1 [Compound 398, 3,3-dimethyl-N-(6-(trifluoromethyl)-3-(4-(trifluoromethyl)pyridin-2-yl)imidazo[1,2-a]pyridin-2-yl)butanamide] |  | pEC50 [2]: > 6.30
15 | O=C(CC1CCCC1)Nc1nc2cc(C(F)(F)F)ccn2c1-c1ccccc1 [Compound 98, 2-cyclopentyl-N-(3-phenyl-7-(trifluoromethyl)imidazo[1,2-a]pyridin-2-yl)acetamide] | 5.52 to 6.30 | 

Source: patent US9018208B2, “Heterocycles as potassium channel modulators” (Icagen Inc., priority 2007, dated 2015)
